Source: patent US12552756B2, “Deuterated aminothiazole compounds as antiviral compounds” (priority 2020, dated 2026)
Where “and” joins values, the source holds several entries; their conditions need not be identical. Equal entries are not always repeated. Where two headings read alike, the source gives them in different places.

Experiments:
HSV-2 = experiment: In-vitro activity, HSV-2 infected Vero; format: cell-based; details: Human alphaherpesvirus 2; Vero cells
Method: (§1) The in-vitro activity for (HSV-1 infected Vero), (HSV-2 infected Vero) and (HSV-1 (ACV resistant) infected vero) was tested as outlined in WO2017/174640 and WO2019/068817. For comparison, the non-deuterated matched-pair to Example 1 of the present application has been tested, which is hereinafter designated as Comparative Example C7 and which corresponds to Example 7 of WO2017/174640.

[1] = Microsomal stability, human liver microsomes, conversion to hydroxylated metabolite; format: in vitro ADME; details: 1st and 2nd replicate
Method: Example 1 and the non-deuterated matched pair (Comparative Example C7/Example 7 from WO2017/174640) were incubated using three different batches of human liver microsomes (HLM) for a period of 60 min. The conversion to the hydroxylated metabolite was monitored by LC-MS.

HSV-1 = experiment: In-vitro activity, HSV-1 infected Vero; format: cell-based; details: Human alphaherpesvirus 1; Vero cells
Method: as §1

HSV-1 (ACV resistant) = experiment: In-vitro activity, HSV-1 (ACV resistant) infected vero; format: cell-based; details: Human alphaherpesvirus 1, Vero, read-out: IC50 (HSV-1 ACV resistant)
Method: as §1

[2] = Pharmacokinetics in mouse; format: in vivo; details: male C57BI/6N mouse; for % AUCextra / t1/2z / tz / AUC(0-inf) / AUC(0-t) / C0 / clearance / concentration at 24 h / Vd / Cmax / Tmax: cassette; for AUC(0-inf) / AUC(0-t) / C0 / clearance / concentration at 24 h / Vd / bioavailability / Cmax / Tmax: plasma; for concentration at 24 h: read-out: Cz; for Vd: read-out: Vz; for bioavailability: po 10 mg/kg vs iv 2 mg/kg
Method: Plasma from the retrobulbar venous plexus was analyzed by LC-MS. The obtained data obtained is as follows (NC=not calculable): […]

[3] = Brain exposure and brain-to-plasma ratio in mouse; format: in vivo; details: C57BI/6N mouse; for behaviour and clinical signs after dosing: oral cassette dosing 10 mg/kg each; for Kp at 4 h: brain/plasma; for Kp at 4 h / concentration at 4 h: oral cassette 10 mg/kg
Method: The brain and plasma exposure for Example 6 as well as for Example 4/2 and for its non-deuterated matched-pair (Comparative Example C4/2/Example 7(—) from WO2017/174640) was asessed in 3 mice (strain C57BI/6N, weight 21-26 g) after oral cassette dosing with a dose of 10 mg/kg each after 4 h. The compounds were formulated in 5% DMSO and 95% aq. HPMC (0.5%). […] Plasma from the retrobulbar venous plexus was analyzed by LC-MS.

[4] = Additional microsomal stability, human microsomes, hydroxy metabolite formation; format: in vitro ADME; details: human (mixed gender) microsomes, 60 min
Method: The formation of the hydroxy metabolites was quantified via peak area ratio towards the corresponding non-deuterated matched pair when incubating the samples in rat microsomes (SD rat, male) or human microsomes (mixed gender) for 60 min at Admescope. The peak signal (positive mode) was quantified with a Waters Acquity UPLC+Thermo Q-Exactive Focus Orbitrap MS on a Phenomenex Kinetex Biphenyl (2.1×50 mm, 1.7 μm particle size […]) column.

[5] = brain, read-out: mean brain conc. with SD
[6] = plasma, read-out: mean plasma conc. with SD

Cc1nc(N(C)C(=O)Cc2ccc(-c3cc(F)ccc3F)cc2)sc1S(C)(=N)=O (racemic) [Comparative Example C7, reference compound]
IC50 (HSV-2): 25 to 100 nM
Parent [nM] 60 min ([1]; HLM batch 38292, 60 min, listed as Comp. Example C7): 1053 nM and 1255 nM
Parent [nM] 60 min ([1]; HLM batch 5061002, 60 min, listed as Comp. Example C7): 1122 nM and 910 nM
Parent [nM] 60 min ([1]; HLM batch 6029002, 60 min, listed as Comp. Example C7): 937 nM and 973 nM
IC50 (HSV-1): 25 to 100 nM
IC50 (HSV-1 (ACV resistant)): 25 to 100 nM

[2H]C([2H])([2H])c1nc(N(C)C(=O)Cc2ccc(-c3cc(F)ccc3F)cc2)sc1S(C)(=N)=O (racemic) [Example 1, 2-(2′,5′-Difluoro-[1,1′-biphenyl]-4-yl)-N-methyl-N-(4-(methyl-d3)-5-(S-methyl-sulfonimidoyl)thiazol-2-yl)acetamide]
IC50 (HSV-2): 25 to 125 nM
Parent [nM] 60 min ([1]; HLM batch 38292, 60 min): 928 nM and 1085 nM
Parent [nM] 60 min ([1]; HLM batch 5061002, 60 min): 1083 nM and 1058 nM
Parent [nM] 60 min ([1]; HLM batch 6029002, 60 min): 1231 nM and 1159 nM
IC50 (HSV-1): 25 to 125 nM
IC50 (HSV-1 (ACV resistant)): 25 to 125 nM

[2H]C([2H])([2H])c1nc(N(C)C(=O)Cc2ccc(-c3cc(F)ccc3F)cc2)sc1[S@](C)(=N)=O (single isomer, unassigned) [Example 4/1]
IC50 (HSV-2): 50 to 250 nM
IC50 (HSV-1): 50 to 150 nM
IC50 (HSV-1 (ACV resistant)): 50 to 150 nM

[2H]C([2H])([2H])c1nc(N(C)C(=O)Cc2ccc(-c3cc(F)ccc3F)cc2)sc1[S@@](C)(=N)=O (single isomer, unassigned) [Example 4/2]
IC50 (HSV-2): 10 to 90 nM
% AUCextra ([2]; iv 2 mg/kg): 24.9%
t1/2z ([2]; iv 2 mg/kg): 11.3 h
tz ([2]; iv 2 mg/kg): 24 h
tz ([2]; po 10 mg/kg): 24 h
AUC(0-inf) ([2]; iv 2 mg/kg): 10600 ng·h/mL
AUC(0-t) ([2]; iv 2 mg/kg): 8000 ng·h/mL
C0 ([2]; iv 2 mg/kg): 16.2 ng/mL
clearance ([2]; iv 2 mg/kg): 3.13 mL/min/kg
concentration at 24 h ([2]; iv 2 mg/kg): 162 ng/mL
Vd ([2]; iv 2 mg/kg): 3.07 L/kg
bioavailability [2]: 201%
AUC(0-t) ([2]; po 10 mg/kg): 80200 ng·h/mL
Cmax ([2]; po 10 mg/kg): 4610 ng/mL
Tmax ([2]; po 10 mg/kg): 4 h
concentration at 24 h ([2]; po 10 mg/kg): 2730 ng/mL
improvement of plasma and brain exposure compared to the non-deuterated matched-pair ([3]; oral 10 mg/kg, after 4 h): over 50%
behaviour and clinical signs after dosing [3]: no clinical signs observed
Kp at 4 h [3]: 1.57
concentration at 4 h [3, 5]: 8610 ± 2180 ng/mL
concentration at 4 h [3, 6]: 5470 ± 1320 ng/mL
IC50 (HSV-1): 5 to 75 nM
IC50 (HSV-1 (ACV resistant)): 5 to 75 nM

[2H]C([2H])([2H])Oc1ccccc1-c1ccc(CC(=O)N(C)c2nc(C)c(S(N)(=O)=O)s2)cc1 [5/2]
IC50 (HSV-2): 30 to 150 nM
IC50 (HSV-1): 10 to 100 nM
IC50 (HSV-1 (ACV resistant)): 10 to 100 nM

[2H]C([2H])([2H])c1nc(N(C)C(=O)Cc2ccc(-c3cc(F)ccc3F)cc2F)sc1S(N)(=O)=O [6/2]
IC50 (HSV-2): 3 to 75 nM
IC50 (HSV-1): 2 to 60 nM
IC50 (HSV-1 (ACV resistant)): 2 to 60 nM

Cc1nc(N(C)C(=O)Cc2ccc(-c3cc(F)ccc3F)cc2)sc1[S@@](C)(=N)=O [Comparative Example C4/2, reference compound]
% AUCextra ([2]; iv 2 mg/kg): 12.4%
t1/2z ([2]; iv 2 mg/kg): 7.7 h
tz ([2]; iv 2 mg/kg): 24 h
tz ([2]; po 10 mg/kg): 24 h
AUC(0-inf) ([2]; iv 2 mg/kg): 6390 ng·h/mL
AUC(0-t) ([2]; iv 2 mg/kg): 5600 ng·h/mL
C0 ([2]; iv 2 mg/kg): 10.4 ng/mL
clearance ([2]; iv 2 mg/kg): 5.22 mL/min/kg
concentration at 24 h ([2]; iv 2 mg/kg): 71.5 ng/mL
Vd ([2]; iv 2 mg/kg): 3.47 L/kg
bioavailability [2]: 167%
AUC(0-t) ([2]; po 10 mg/kg): 46600 ng·h/mL
Cmax ([2]; po 10 mg/kg): 2960 ng/mL
Tmax ([2]; po 10 mg/kg): 4 h
concentration at 24 h ([2]; po 10 mg/kg): 1260 ng/mL
behaviour and clinical signs after dosing [3]: no clinical signs observed
Kp at 4 h [3]: 1.57
concentration at 4 h [3, 5]: 5610 ± 1450 ng/mL
concentration at 4 h [3, 6]: 3580 ± 726 ng/mL

[2H]c1c([2H])c([2H])c(-c2ccc(CC(=O)N(C)c3nc(C)c(S(N)(=O)=O)s3)cc2)c([2H])c1[2H] [Example 5, 2-([1,1′-Biphenyl]-4-yl-2′,3′,4′,5′,6′-d5)-N-methyl-N-(4-methyl-5-sulfamoyl-thiazol-2-yl)acetamide]
IC50 (HSV-2): 25 to 125 nM
IC50 (HSV-1): 1 to 50 nM
IC50 (HSV-1 (ACV resistant)): 1 to 50 nM

[2H]C([2H])([2H])Oc1cccc(-c2ccc(CC(=O)N(C)c3nc(C)c(S(N)(=O)=O)s3)cc2)c1 [Example 5/1]
IC50 (HSV-2): 5 to 75 nM
IC50 (HSV-1): 10 to 100 nM
IC50 (HSV-1 (ACV resistant)): 10 to 100 nM

[2H]C([2H])([2H])c1nc(N(C)C(=O)Cc2ccc(-c3cc(F)ccc3F)cc2)sc1S(N)(=O)=O [Example 6, 2-(2′,5′-Difluoro-[1,1′-biphenyl]-4-yl)-N-methyl-N-(4-(methyl-d3)-5-sulfamoylthiazol-2-yl)acetamide]
IC50 (HSV-2): 2 to 60 nM
behaviour and clinical signs after dosing [3]: no clinical signs observed
Kp at 4 h [3]: 0.78
concentration at 4 h [3, 5]: 3220 ± 1910 ng/mL
concentration at 4 h [3, 6]: 4130 ± 1760 ng/mL
IC50 (HSV-1): 2 to 60 nM
IC50 (HSV-1 (ACV resistant)): 2 to 60 nM
hydroxy metabolite peak area ratio [4]: BLQ

[2H]C([2H])([2H])c1nc(N(C)C(=O)Cc2ccc(-c3cccc(F)c3)cc2F)sc1S(N)(=O)=O [Example 6/1]
IC50 (HSV-2): 4 to 75 nM
IC50 (HSV-1): 2 to 60 nM
IC50 (HSV-1 (ACV resistant)): 2 to 60 nM
